The assay concerns the target glucocorticoid receptor (Homo sapiens (Human), UniProt P04150). Kind of assay: HepG2 TAT assay: inhibition of dexamethasone-induced tyrosine aminotransferase (TAT) activity. Type of assay: cell-based. Particulars: HepG2 cells, challenge of 100 nM dexamethasone, 18-24 hr; IC50 converted to Ki by Cheng and Prusoff equation. The protocol:
Glucocorticoid mediated activation of TAT occurs by transactivation of glucocorticoid response elements in the TAT promoter by glucocorticoid receptor-agonist complex.
HepG2 cells were cultured using MEME media supplemented with 10% (v/v) foetal bovine serum; 2 mM L-glutamine and 1% (v/v) NEAA at 37° C., 5%/95% (v/v) CO2/air.
Compounds were serially half log diluted in 100% (v/v) dimethylsulphoxide from a 10 mM stock.
HepG2 cells were then lysed with 30 μl of cell lysis buffer containing a protease inhibitor cocktail for 15 minutes at 4° C. […] After 2 hours incubation at 37° C. the reaction was terminated by the addition of 15 μl of 10M aqueous potassium hydroxide solution, and the plates incubated for a further 30 minutes at 37° C.
[compound] and fitting the data to a 4 parameter logistic equation.

Results on 30 molecules are retold here after patent US20250115583A1, “BICYCLIC INDAZOLE GLUCOCORTICOID RECEPTOR ANTAGONISTS” (Corcept Therapeutics Incorporated, priority 2021, published 2025).

Chain of glucocorticoid receptor (P04150 whole entry): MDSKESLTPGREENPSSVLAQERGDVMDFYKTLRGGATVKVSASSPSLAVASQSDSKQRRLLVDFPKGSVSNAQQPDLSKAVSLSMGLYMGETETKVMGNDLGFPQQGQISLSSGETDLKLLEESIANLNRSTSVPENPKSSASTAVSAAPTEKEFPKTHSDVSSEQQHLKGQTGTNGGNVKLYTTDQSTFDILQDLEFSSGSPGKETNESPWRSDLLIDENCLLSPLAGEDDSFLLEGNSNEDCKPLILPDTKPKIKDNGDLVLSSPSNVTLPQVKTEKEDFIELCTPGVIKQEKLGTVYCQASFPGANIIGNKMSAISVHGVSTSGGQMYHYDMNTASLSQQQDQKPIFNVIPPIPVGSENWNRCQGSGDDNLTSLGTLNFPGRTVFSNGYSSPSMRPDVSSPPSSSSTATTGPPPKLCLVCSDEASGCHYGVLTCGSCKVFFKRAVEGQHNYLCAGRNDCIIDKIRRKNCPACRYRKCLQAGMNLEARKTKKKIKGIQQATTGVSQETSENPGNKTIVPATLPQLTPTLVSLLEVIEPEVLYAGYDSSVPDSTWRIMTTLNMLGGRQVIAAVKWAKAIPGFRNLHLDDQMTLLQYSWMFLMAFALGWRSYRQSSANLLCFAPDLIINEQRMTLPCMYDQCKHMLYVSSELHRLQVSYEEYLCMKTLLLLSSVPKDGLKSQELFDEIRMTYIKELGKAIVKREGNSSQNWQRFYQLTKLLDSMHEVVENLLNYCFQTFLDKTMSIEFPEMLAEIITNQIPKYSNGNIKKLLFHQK

The Ki is the equilibrium dissociation constant of an inhibitor or competing ligand from its target. Molecule `COc1cccc(C(=O)N2C[C@@H]3[C@@H](c4ccccc4)[C@]3(c3cc4cnn(-c5ccc(F)cc5)c4cc3C)C2)c1` (single isomer, unassigned) [Example 141, (1-(1-(4-fluorophenyl)-6-methyl-1H-indazol-5-yl)-6-phenyl-3-azabicyclo[3.1.0]hexan-3-yl)(3-methoxyphenyl)methanone] returned a Ki of 19 nM.

In the case of `COCC(=O)N1C[C@@H]2[C@@H](c3ccccc3)[C@]2(c2cc3cnn(-c4ccc(F)cc4)c3cc2C)C1` (single isomer, unassigned) [Example 119, 1-(1-(1-(4-fluorophenyl)-6-methyl-1H-indazol-5-yl)-6-phenyl-3-azabicyclo[3.1.0]hexan-3-yl)-2-methoxyethan-1-one], the Ki was 48 nM. This Ki is about 2.5-fold higher than that of the molecule before.

As for `CC#CC1(OC)CC2CN(S(=O)(=O)c3cnn(C)c3)CC2(c2cc3cnn(-c4ccc(F)cc4)c3cc2C)C1` (stereo not drawn) [Example 16], the Ki was determined as 270 nM. In turn, `Cc1cc2c(cnn2-c2ccc(F)cc2)cc1[C@@]12CN(S(=O)(=O)c3cnn(C)n3)C[C@@H]1[C@H]2c1nc2ccccc2o1` [Example 134, 2-(1-(1-(4-fluorophenyl)-6-methyl-1H-indazol-5-yl)-3-((2-methyl-2H-1,2,3-triazol-4-yl)sulfonyl)-3-azabicyclo[3.1.0]hexan-6-yl)benzo[d]oxazole] returned a Ki of 55 nM. As for `Cc1cc2c(cnn2-c2ccc(F)cc2)cc1C12CN(S(=O)(=O)c3cnn(C)c3)CC1CC(O)(c1ccccn1)C2` (stereo not drawn) [Example 15], the Ki was found to be 330 nM. Then `CNS(=O)(=O)N1C[C@@H]2[C@@H](c3ccccc3)[C@]2(c2cc3cnn(-c4ccc(F)cc4)c3cc2C)C1` [Example 106], with 55 nM. `Cc1cc2c(cnn2-c2ccc(F)cc2)cc1[C@@]12CN(S(=O)(=O)N3CCCC3)C[C@@H]1[C@H]2c1ccccc1` (single isomer, unassigned) [Example 99] returned an inhibition constant (Ki) of 28 nM.

For `Cc1ccnc(C(=O)N2C[C@@H]3[C@@H](c4ccccc4)[C@]3(c3cc4cnn(-c5ccc(F)cc5)c4cc3C)C2)c1` (single isomer, unassigned) [Example 146, (1-(1-(4-fluorophenyl)-6-methyl-1H-indazol-5-yl)-6-phenyl-3-azabicyclo[3.1.0]hexan-3-yl)(4-methylpyridin-2-yl)methanone], the Ki stood at 14 nM. Then `Cc1cc2c(cnn2-c2ccc(F)cc2)cc1C12CN(S(=O)(=O)c3cnn(C)n3)CC1C2COc1ccc(Cl)cc1` (single isomer, unassigned) [Example 53, 5-(6-((4-chlorophenoxy)methyl)-3-((2-methyl-2H-1,2,3-triazol-4-yl)sulfonyl)-3-azabicyclo[3.1.0]hexan-1-yl)-1-(4-fluorophenyl)-6-methyl-1H-indazole], with 110 nM. The same measure for `Cc1noc([C@@H]2[C@H]3CN(S(=O)(=O)c4cnn(C)n4)C[C@]32c2cc3cnn(-c4ccc(F)cc4)c3cc2C)n1` (stereo in doubt) [Example 131, 5-(1-(1-(4-fluorophenyl)-6-methyl-1H-indazol-5-yl)-3-((2-methyl-2H-1,2,3-triazol-4-yl)sulfonyl)-3-azabicyclo[3.1.0]hexan-6-yl)-3-methyl-1,2,4-oxadiazole]: 240 nM; for `Cc1cc2c(cnn2-c2ccc(F)cc2)cc1[C@@]12CN(C(=O)c3ncc(F)cc3F)C[C@@H]1[C@H]2c1ccccc1` (stereo in doubt) [Example 157, (3,5-difluoropyridin-2-yl)(1-(1-(4-fluorophenyl)-6-methyl-1H-indazol-5-yl)-6-phenyl-3-azabicyclo[3.1.0]hexan-3-yl)methanone]: 18 nM; for `CCn1cc(S(=O)(=O)N2C[C@@H]3C[C@@](OC)(c4ccccc4)C[C@]3(c3cc4cnn(-c5ccc(F)cc5)c4cc3C)C2)cn1` [Example 21]: 37 nM. `CCOC1(c2ccccc2)CC2CN(S(=O)(=O)c3cnn(C)c3)CC2(c2cc3cnn(-c4ccc(F)cc4)c3cc2C)C1` (stereo not drawn) [Example 12] returned a Ki of 170 nM. Then `COCCOC(=O)N1C[C@@H]2[C@@H](c3ccccc3)[C@]2(c2cc3cnn(-c4ccc(F)cc4)c3cc2C)C1` (single isomer, unassigned) [Example 123, 2-methoxyethyl 1-(1-(4-fluorophenyl)-6-methyl-1H-indazol-5-yl)-6-phenyl-3-azabicyclo[3.1.0]hexane-3-carboxylate], with 27 nM. Then `Cc1cc2c(cnn2-c2ccc(F)cc2)cc1[C@@]12CN(C(=O)c3ccccc3S(C)(=O)=O)C[C@@H]1[C@H]2c1ccccc1` (stereo in doubt) [Example 159, (1-(1-(4-fluorophenyl)-6-methyl-1H-indazol-5-yl)-6-phenyl-3-azabicyclo[3.1.0]hexan-3-yl)(2-(methylsulfonyl)phenyl)methanone], with 24 nM; and `Cc1cc2c(cnn2-c2ccc(F)cc2)cc1[C@@]12CN(S(=O)(=O)c3cnn(C)n3)C[C@@H]1[C@@H]2CO` (stereo in doubt) [Example 48, (1-(1-(4-fluorophenyl)-6-methyl-1H-indazol-5-yl)-3-((2-methyl-2H-1,2,3-triazol-4-yl)sulfonyl)-3-azabicyclo[3.1.0]hexan-6-yl) methanol], with 570 nM; and `COC1(c2ccccc2)CC2CN(S(=O)(=O)c3cnn(C)c3)CC2(c2cc3cnn(-c4ccc(F)cc4)c3cc2C)C1` (stereo not drawn) [Example 11, 1-(4-Fluorophenyl)-5-(5-methoxy-2-((1-methyl-1H-pyrazol-4-yl)sulfonyl)-5-phenylhexahydrocyclopenta[c]pyrrol-3a(1H)-yl)-6-methyl-1H-indazole], with 33 nM. Then `Cc1cc2c(cnn2-c2ccc(F)cc2)cc1[C@@]12CN(C(=O)c3cnn(C)n3)C[C@@H]1[C@H]2c1ccccc1` (single isomer, unassigned) [Example 127, (1-(1-(4-fluorophenyl)-6-methyl-1H-indazol-5-yl)-6-phenyl-3-azabicyclo[3.1.0]hexan-3-yl)(2-methyl-2H-1,2,3-triazol-4-yl)methanone], with 19 nM; and `CO[C@]1(c2ccccc2)C[C@H]2CN(S(=O)(=O)c3cnn(C)c3)C[C@@]2(c2cc3cnn(-c4ccc(F)cc4)c3cc2C)C1` [Example 8, 1-(4-fluorophenyl)-5-((3aS,5R,6aR)-5-methoxy-2-((1-methyl-1H-pyrazol-4-yl)sulfonyl)-5-phenylhexahydrocyclopenta[c]pyrrol-3a(1H)-yl)-6-methyl-1H-indazole], with 310 nM. Consider `Cc1cc2c(cnn2-c2ccc(F)cc2)cc1[C@@]12CN(C(=O)C3CCOCC3)C[C@@H]1[C@H]2c1ccccc1` (stereo in doubt) [Example 160, (1-(1-(4-fluorophenyl)-6-methyl-1H-indazol-5-yl)-6-phenyl-3-azabicyclo[3.1.0]hexan-3-yl)(tetrahydro-2H-pyran-4-yl)methanone], for which the inhibition constant (Ki) was determined as 70 nM. This Ki is about 4.4-fold lower than that of the molecule before. Molecule `Cc1cc2c(cnn2-c2ccc(F)cc2)cc1[C@@]12CN(C(=O)c3ccnn3C)C[C@@H]1[C@H]2c1ccccc1` (stereo in doubt) [Example 161, (1-(1-(4-fluorophenyl)-6-methyl-1H-indazol-5-yl)-6-phenyl-3-azabicyclo[3.1.0]hexan-3-yl)(1-methyl-1H-pyrazol-5-yl)methanone] registered a Ki of 61 nM. Then `Cc1cc2c(cnn2-c2ccc(F)cc2)cc1[C@]12CN(S(=O)(=O)C3CCOCC3)C[C@H]1[C@@H]2c1ccccc1` [Example 88], with 47 nM.

Consider `CCn1ccc(S(=O)(=O)N2C[C@@H]3[C@@H](c4ccccc4)[C@]3(c3cc4cnn(-c5ccc(F)cc5)c4cc3C)C2)n1` [Example 92], for which the affinity, expressed as Ki, was 9.5 nM.

For the molecule `Cc1cc2c(cnn2-c2ccc(F)cc2)cc1[C@@]12CN(S(=O)(=O)N3CC(C#N)C3)C[C@@H]1[C@H]2c1ccccc1` [Example 103], the Ki stood at 27 nM. The same measure for `CC(=O)N1C[C@@H]2[C@@H](c3ccccc3)[C@]2(c2cc3cnn(-c4ccc(F)cc4)c3cc2C)C1` (single isomer, unassigned) [Example 111, 1-(1-(1-(4-fluorophenyl)-6-methyl-1H-indazol-5-yl)-6-phenyl-3-azabicyclo[3.1.0]hexan-3-yl)ethan-1-one]: 52 nM. Molecule `Cc1cc2c(cnn2-c2ccc(F)cc2)cc1C12CC(Oc3ccccc3)CC1CN(S(C)(=O)=O)C2` (stereo not drawn) [Example 37, 1-(4-fluorophenyl)-6-methyl-5-(2-(methylsulfonyl)-5-phenoxyhexahydrocyclopenta[c]pyrrol-3a(1H)-yl)-1H-indazole] registered a Ki of 170 nM.

For the molecule `COC1(c2ccccc2)CC2CN(S(=O)(=O)C(C)C)CC2(c2cc3cnn(-c4ccc(F)cc4)c3cc2C)C1` (stereo not drawn) [Example 30], the affinity, expressed as Ki, was 32 nM. Against the preceding molecule, the Ki is about 5.3-fold lower. Then `COC1CC2CN(S(C)(=O)=O)CC2(c2cc3cnn(-c4ccc(F)cc4)c3cc2C)C1` (stereo not drawn) [Example 34, 1-(4-fluorophenyl)-5-(5-methoxy-2-(methylsulfonyl)hexahydrocyclopenta[c]pyrrol-3a(1H)-yl)-6-methyl-1H-indazole], with 800 nM. Then `Cc1cc2c(cnn2-c2ccc(F)cc2)cc1[C@@]12CN(C(=O)c3cccnc3)C[C@@H]1[C@H]2c1ccccc1` (single isomer, unassigned) [Example 112, (1-(1-(4-fluorophenyl)-6-methyl-1H-indazol-5-yl)-6-phenyl-3-azabicyclo[3.1.0]hexan-3-yl)(pyridin-3-yl)methanone], with 65 nM; and `Cc1cc2c(cnn2-c2ccc(F)cc2)cc1[C@]12CN(C(=O)c3cn(C)nn3)C[C@H]1[C@@H]2c1ccccc1` [Example 147, (1-(1-(4-fluorophenyl)-6-methyl-1H-indazol-5-yl)-6-phenyl-3-azabicyclo[3.1.0]hexan-3-yl)(1-methyl-1H-l,2,3-triazol-4-yl)methanone], with 37 nM.
